Structures can show the parent of a compound that is named as a salt.
Key:
[1] = system: BT474 [human breast carcinoma, overexpressing HER2 (ErbB2)]; assay: In vitro tumor cell proliferation assay (Cell Titer-Glo luminescent cell viability), BT474 cells; format: cell-based; conditions: BT-474, 72 h, 72 hours of drug exposure, Cell Titer-Glo readout, read-out: IC50, anti-proliferative activity in BT474 cells
[2] = system: A431 cells [human epidermoid carcinoma, overexpressing HER1 (EGFR, ErbB1)]; assay: In vitro tumor cell proliferation assay (Cell Titer-Glo luminescent cell viability), A431 cells; format: cell-based; conditions: A-431, 72 h, 72 hours of drug exposure, Cell Titer-Glo readout, read-out: IC50, anti-proliferative activity in A431 cells

| SMILES | IC50 [1] | IC50 [2] |
| --- | --- | --- |
| CS(=O)(=O)CCNC(=O)CCc1ccc2c(c1)sc1ncnc(Nc3ccc(OCc4cccc(F)c4)c(Cl)c3)c12 [Example 69, 3-[4-({3-chloro-4-[(3-fluorobenzyl)oxy]phenyl}amino)[1]benzothieno[2,3-d]pyrimidin-7-yl]-N-[2-(methylsulfonyl)ethyl] propanamide] | ≤ 0.5 µM | ≤ 5 µM |
| CN(C)CCNC(=O)CCc1ccc2c(c1)sc1ncnc(Nc3ccc(OCc4cccc(F)c4)c(Cl)c3)c12 [Example 70, 3-[4-({3-chloro-4-[(3-fluorobenzyl)oxy]phenyl}amino)[1]benzothieno[2,3-d]pyrimidin-7-yl]-N-[2-(dimethylamino)ethyl] propanamide] | ≤ 5 µM | ≤ 5 µM |
| Clc1cc(Nc2ncnc3sc4cc(Br)ccc4c23)ccc1OCc1ccccn1 [Example 71, 7-bromo-N-[3-chloro-4-(pyridin-2-ylmethoxy)phenyl][1]benzothieno[2,3-d]pyrimidin-4-amine] | ≤ 5 µM | ≤ 50 µM |
| C=Cc1ccc2c(c1)sc1ncnc(Nc3ccc(OCc4ccccn4)c(Cl)c3)c12 [Example 72, N-[3-chloro-4-(pyridin-2-ylmethoxy)phenyl]-7-vinyl[1]benzothieno[2,3-d]pyrimidin-4-amine] | ≤ 5 µM | ≤ 50 µM |
| OC[C@@H](O)c1ccc2c(c1)sc1ncnc(Nc3ccc(OCc4ccccn4)c(Cl)c3)c12 [Example 74, (1S)-1-(4-{[3-chloro-4-(pyridin-2-ylmethoxy)phenyl]amino}[1]benzothieno[2,3-d]pyrimidin-7-yl)ethane-1,2-diol] | ≤ 0.5 µM | ≤ 50 µM |
| OC[C@H](O)c1ccc2c(c1)sc1ncnc(Nc3ccc(OCc4ccccn4)c(Cl)c3)c12 [Example 75, (1R)-1-(4-{[3-chloro-4-(pyridin-2-ylmethoxy)phenyl]amino}[1]benzothieno[2,3-d]pyrimidin-7-yl)ethane-1,2-diol] | ≤ 0.5 µM | ≤ 50 µM |
| Clc1cc(Nc2ncnc3sc4cc(N5CCOCC5)ccc4c23)ccc1OCc1ccccn1 [Example 76, N-[3-chloro-4-(pyridin-2-ylmethoxy)phenyl]-7-morpholin-4-yl[1]benzothieno[2,3-d]pyrimidin-4-amine trifluoroacetate] | ≤ 0.5 µM | ≤ 50 µM |
| CN1CCN(c2ccc3c(c2)sc2ncnc(Nc4ccc(OCc5ccccn5)c(Cl)c4)c23)CC1 [Example 77, N-[3-chloro-4-(pyridin-2-ylmethoxy)phenyl]-7-(4-methylpiperazin-1-yl)[1]benzothieno [2,3-d]pyrimidin-4-amine trifluoroacetate] | ≤ 0.5 µM | ≤ 5 µM |
| Clc1cc(Nc2ncnc3sc4cc(NCCN5CCOCC5)ccc4c23)ccc1OCc1ccccn1 [Example 78, N4-[3-chloro-4-(pyridin-2-ylmethoxy)phenyl]-N7-(2-morpholin-4-ylethyl)[1] benzothieno[2,3-d]pyrimidine-4,7-diamine trifluoroacetate] | ≤ 5 µM | ≤ 50 µM |
| COCCCNc1ccc2c(c1)sc1ncnc(Nc3ccc(OCc4ccccn4)c(Cl)c3)c12 [Example 79, N4-[3-chloro-4-(pyridin-2-ylmethoxy)phenyl]-N7-(3-methoxypropyl)[1]benzothieno [2,3-d]pyrimidine-4,7-diamine trifluoroacetate] | ≤ 5 µM | ≤ 50 µM |
| CCOC(=O)Cc1ccc2c(c1)sc1ncnc(Nc3ccc(OCc4ccccn4)c(Cl)c3)c12 [Example 81, ethyl {4-[3-Chloro-4-(pyridin-2-ylmethoxy)-phenylamino]-benzo [4,5]thieno[2,3-d]pyrimidin-7-yl}-acetate trifluoroacetate] | ≤ 5 µM | ≤ 50 µM |
| OCCc1ccc2c(c1)sc1ncnc(Nc3ccc(OCc4ccccn4)c(Cl)c3)c12 [Example 82, 2-(4-{[3-chloro-4-(pyridin-2-ylmethoxy)phenyl]amino}[1]benzothieno[2,3-d]pyrimidin-7-yl) ethanol] | ≤ 0.5 µM | ≤ 5 µM |
| Clc1cc(Nc2ncnc3sc4cc(CCBr)ccc4c23)ccc1OCc1ccccn1 [Example 83, 7-(2-bromoethyl)-N-[3-chloro-4-(pyridin-2-ylmethoxy)phenyl][1] benzothieno[2,3-d]pyrimidin-4-amine] | ≤ 0.5 µM | ≤ 5 µM |
| Clc1cc(Nc2ncnc3sc4cc(CCN5CCOCC5)ccc4c23)ccc1OCc1ccccn1 [Example 84, N-[3-chloro-4-(pyridin-2-ylmethoxy)phenyl]-7-(2-morpholin-4-ylethyl)[1]benzothieno[2,3-d] pyrimidin-4-amine] | ≤ 0.5 µM | ≤ 50 µM |
| CS(=O)(=O)CCNCCc1ccc2c(c1)sc1ncnc(Nc3ccc(OCc4ccccn4)c(Cl)c3)c12 [Example 85, N-[3-chloro-4-(pyridin-2-ylmethoxy)phenyl]-7-(2-{[2-(methylsulfonyl)ethyl]amino}ethyl) [1]benzothieno[2,3-d]pyrimidin-4-amine trifluoroacetate] | ≤ 0.5 µM | ≤ 5 µM |
| COCCNCCc1ccc2c(c1)sc1ncnc(Nc3ccc(OCc4ccccn4)c(Cl)c3)c12 [Example 86, N-[3-chloro-4-(pyridin-2-ylmethoxy)phenyl]-7-{2-[(2-methoxyethyl)amino]ethyl}[1] benzothieno[2,3-d]pyrimidin-4-amine trifluoroacetate] | ≤ 0.5 µM | ≤ 5 µM |
| Clc1cc(Nc2ncnc3sc4cc(CCN5CCCC5)ccc4c23)ccc1OCc1ccccn1 [Example 87, N-[3-chloro-4-(pyridin-2-ylmethoxy)phenyl]-7-(2-pyrrolidin-1-ylethyl)[1]benzothieno[2,3-d] pyrimidin-4-amine trifluoroacetate] | ≤ 5 µM | ≤ 50 µM |
| OCCNCCc1ccc2c(c1)sc1ncnc(Nc3ccc(OCc4ccccn4)c(Cl)c3)c12 [Example 88, 2-{[2-(4-{[3-chloro-4-(pyridin-2-ylmethoxy)phenyl]amino}[1]benzothieno[2,3-d]pyrimidin-7-yl)ethyl]amino}ethanol trifluoroacetate (salt)] | ≤ 0.5 µM | ≤ 50 µM |
| Clc1cc(Nc2ncnc3sc4cc(CCN5CCNCC5)ccc4c23)ccc1OCc1ccccn1 [Example 89, N-[3-chloro-4-(pyridin-2-ylmethoxy)phenyl]-7-(2-piperazin-1-ylethyl)[1]benzothieno[2,3-d] pyrimidin-4-amine trifluoroacetate] | ≤ 0.5 µM | ≤ 50 µM |
| CCNCCc1ccc2c(c1)sc1ncnc(Nc3ccc(OCc4ccccn4)c(Cl)c3)c12 [Example 90, N-[3-chloro-4-(pyridin-2-ylmethoxy)phenyl]-7-[2-(ethylamino)ethyl][1]benzothieno [2,3-d]pyrimidin-4-amine trifluoroacetate] | ≤ 0.5 µM | ≤ 5 µM |
| COCCN(CCOC)CCc1ccc2c(c1)sc1ncnc(Nc3ccc(OCc4ccccn4)c(Cl)c3)c12 [Example 93, 7-{2-[bis(2-methoxyethyl)amino]ethyl}-N-[3-chloro-4-(pyridin-2-ylmethoxy)phenyl][1]benzothieno [2,3-d]pyrimidin-4-amine trifluoroacetate] | ≤ 0.5 µM | ≤ 50 µM |
| O=C(O)Cc1ccc2c(c1)sc1ncnc(Nc3ccc(OCc4ccccn4)c(Cl)c3)c12 [Example 94, (4-{[3-chloro-4-(pyridin-2-ylmethoxy)phenyl]amino}[1]benzothieno[2,3-d]pyrimidin-7-yl)acetic acid] | ≤ 5 µM | ≤ 50 µM |
| O=C(Cc1ccc2c(c1)sc1ncnc(Nc3ccc(OCc4ccccn4)c(Cl)c3)c12)N1CCOCC1 [Example 95, N-[3-chloro-4-(pyridin-2-ylmethoxy)phenyl]-7-(2-morpholin-4-yl-2-oxoethyl)[1]benzothieno[2,3-d]pyrimidin-4-amine] | ≤ 5 µM | ≤ 50 µM |
| CN1CCN(C(=O)Cc2ccc3c(c2)sc2ncnc(Nc4ccc(OCc5ccccn5)c(Cl)c4)c23)CC1 [Example 96, N-[3-chloro-4-(pyridin-2-ylmethoxy)phenyl]-7-[2-(4-methylpiperazin-1-yl)-2-oxoethyl][1]benzothieno[2,3-d] pyrimidin-4-amine] | ≤ 0.5 µM | ≤ 50 µM |
| O=C(Cc1ccc2c(c1)sc1ncnc(Nc3ccc(OCc4ccccn4)c(Cl)c3)c12)NCCN1CCOCC1 [Example 97, 2-(4-{[3-chloro-4-(pyridin-2-ylmethoxy)phenyl]amino}[1]benzothieno[2,3-d]pyrimidin-7-yl)-N-(2-morpholin-4-ylethyl) acetamide] | ≤ 0.5 µM | ≤ 50 µM |
| O=C(Cc1ccc2c(c1)sc1ncnc(Nc3ccc(OCc4ccccn4)c(Cl)c3)c12)NCCOCCO [Example 98, 2-(4-{[3-chloro-4-(pyridin-2-ylmethoxy)phenyl]amino}[1]benzothieno[2,3-d]pyrimidin-7-yl)-N-[2-(2-hydroxyethoxy)ethyl] acetamide] | ≤ 5 µM | ≤ 50 µM |
| O=C(Cc1ccc2c(c1)sc1ncnc(Nc3ccc(OCc4ccccn4)c(Cl)c3)c12)N1CCCC1 [Example 99, N-[3-chloro-4-(pyridin-2-ylmethoxy)phenyl]-7-(2-oxo-2-pyrrolidin-1-ylethyl)[1]benzothieno [2,3-d]pyrimidin-4-amine] | ≤ 5 µM | ≤ 50 µM |
| CN(C)CCNC(=O)Cc1ccc2c(c1)sc1ncnc(Nc3ccc(OCc4ccccn4)c(Cl)c3)c12 [Example 100, 2-(4-{[3-chloro-4-(pyridin-2-ylmethoxy)phenyl]amino}[1]benzothieno[2,3-d]pyrimidin-7-yl)-N-[(2-dimethylamino)ethyl]acetamide] | ≤ 0.5 µM | ≤ 50 µM |
| COCCN(CCOC)C(=O)Cc1ccc2c(c1)sc1ncnc(Nc3ccc(OCc4ccccn4)c(Cl)c3)c12 [Example 101, 2-(4-{[3-chloro-4-(pyridin-2-ylmethoxy)phenyl]amino}[1]benzothieno[2,3-d]pyrimidin-7-yl)-N,N-bis (2-methoxyethyl)acetamide] | ≤ 5 µM | ≤ 5 µM |

Source: US7750017B2, “Heterocycles” (Bayer Schering Pharma Aktiengesellschaft, priority 2004, dated 2010)
